This is an account of results in patent US20210113522A1, “COUMARIN DERIVATIVE AS ANTI-ASTHMATIC AGENT, PHARMACEUTICAL COMPOSITION THEREOF, ITS PREPARATION AND USE” (I-NOVA MEDICINSKA ISTRAZIVANJA D.O.O., priority 2017, published 2021).

In the assay the test system is IL-5. The experiment in a line: OVA model: IL-5 immunohistochemistry of lung sections. Type of assay: in vivo, Balb/c mice. As to conditions: OVA-sensitised mice; both compound 1 groups 2 mg/kg, beclomethasone 1 mg/kg. The procedure:
To investigate the treatment effect of compound 1, immunohistology from serial lung sections was performed 2 days after i.n. challenge in experimental mice that were treated with the compound 1 or beclomethasone as standard antiinflammatory and anti-asthmatic API.
• (1) Wash Buffer: T-PBS (0.1M, pH 7.4, 0.05% Tween 20); • (2) Blocking/Incubation Buffer: 1% bovine serum albumin, 0.1% Cold Fish Skin Gelatin, 0.5% Triton® X-100, 0.1 M PBS (pH 7.4); • (3) Peroxidase Blocking Solution (3% H2O2 in water); • (4) EDTA Antigen Retrieval Buffer (1 mM EDTA, 0.05% Tween 20, pH 8.0); • (5) Primary antibodies: • Rabbit anti-mouse IL-5 (Cat. #ABIN446956; Antibodies-Online GmbH, Schloss-Rahe-Str. 1552072 Aachen, Germany); • Rat anti-mouse CCL11 (Cat. #MAB420; R&D Systems, Inc., 614 McKinley Place Nebr., Minneapolis, Minn. 55413); • (6) Secondary antibodies: • Goat anti-rabbit IgG (H+L)-HRP (cat. #31466; Thermo Fisher Scientific, 168 Third Avenue Waltham, Mass. USA 02451); • Goat anti-rat IgG (H+L)—HRP (cat. #62-9520; Thermo Fisher Scientific, 168 Third Avenue Waltham, Mass. USA 02451); • (7) Pierce DAB Substrate Kit (DAB (10×), 25 mL; Stable Peroxide Buffer, 250 mL) (Catalog #34002; Thermo Fisher Scientific, 168 Third Avenue Waltham, Mass. […]

With `O=c1oc2cc(O)cc(O)c2c(O)c1-c1coc2c1c(=O)oc1cc(O)cc(O)c12` [Compound 1, 7,9-dihydroxy-3-(4,5,7-trihydroxy-2-oxo-2H-chromene-3-yl)-4H-furo[3,2-c]chromen-4-one], the “IL-5 expression in lung sections” value is “no IL-5 expression”. Turning to `C[C@H]1C[C@H]2[C@@H]3CCC4=CC(=O)C=C[C@]4(C)[C@@]3(Cl)[C@@H](O)C[C@]2(C)[C@@]1(O)C(=O)CO` [beclomethasone, reference compound], the “IL-5 expression in lung sections” value was “moderate result”.
